# From patent EP0594877A1, “Imidazo(1,2-c)quinazoline derivates as antihyper tensives and anti dysurics” (NATIONAL SCIENCE COUNCIL, priority 1992, dated 1994)
# Experiments:
# α₁-Adrenergic receptor = α₁-Adrenergic receptor binding assay with [³H] prazocin, rat brain cortex membranes; settings: 0.2 nM [³H] prazocin, pH 7.4
# Method: (§1) After the removal of nuclei by centrifugation at 1000 x g for 10 min, P₂ membranes were pelleted by centrifuging the supernatant at 22,000 x g for 20 min. After two periods of centrifugation at 22,000 x g and resuspension in fresh buffer, the membrane suspension (about 2 mg/ml protein) was ready for use.
# (§2) α₁-Adrenergic receptor binding assays (in triplicate) were carried out with 0.2 nM [³H] prazocin in a final volume of 1.0 ml of Tris buffer at pH 7.4 for 30 min at room temperature, using 10 µM phentolamine to determine non-specific binding. The concentrations of synthetic compounds for competition binding were in the range of 0.1 - 200 nM. α₂-adrenergic receptor binding assays (in triplicate) were carried out with 1 nM [³H] clonidine in the presence of 10 mM MgCl₂ and in a final volume of 1.0 ml of Tris buffer at pH 7.4 for 30 min at room temperature, using 10 µM clonidine to determine non-specific binding. The concentrations of synthetic compounds for competition binding were in the range of 0.1-100 µM. After binding had reached equilibrium, incubations were terminated by collecting the membranes on whatman GF/B filters; the filters were washed twice with 5 ml of 50 mM Tris buffer (pH 7.4) at 4°C. The amount of membrane protein used in each assay was in the range of 300-400 µg, as determined by the method of Lowry et al..
# [1] = Antihypertensive activity: blood pressure and heart rate in anesthetized cats after i.v. administration; type: in vivo; settings: for MBP (mm Hg) 1 hour / MBP (mm Hg) 2 hour: anesthetized cats
# Method: (§3) Adult cats of either sex, 2-3 Kg, anesthetized with pentobarbital sodium (30 mg/Kg i.p.) were used. The trachea was intubated to provide artificial respiration with air by means of a Harvard respirator (respiration rate= 16-20/min and colume= 40-50 ml/stroke). Both femoral artery and vein were cannulated with PE 150 to monitor blood pressure and for drug administration respectively. Body temperature was maintained at 37.5°C with a heating pad and monitored with a rectal thermometer. Blood pressure was measured with a Statham P23D pressure transducer via a polyethylene cannula conducted to a right femoral artery. Heart rate was measured through a Grass Model 7B tachograph preamplifier triggered by the pulses of arterial blood pressure. All data were recorded on a Grass Model 7B polygraph.
# The solvent (50% DM50) has no significant action on B.P. or H.R. However, Example 4 compound (250 µg/Kg) decreases B.P. immediately and reaches maximally at 5-10 minutes, and the duration of action is about 4 hours.
# α₂-adrenergic receptor = α₂-adrenergic receptor binding assay with [³H] clonidine, rat brain cortex membranes; settings: for Ki: 1 nM [³H] clonidine, 10 mM MgCl₂, rat brain cortex membranes, pH 7.4; for α₂/α₁ ratio: ratio of α₂ Ki to α₁ Ki
# Method: as §1, §2
# [2] = Antagonistic effect on blood pressure responses induced by phenylephrine or serotonin in cats; type: in vivo; settings: cats pretreated with dose of ED₅₀ (0.25mg/kg)
# Method: • Fig. 1 is a does-response plot of 2-(4-phenyl-1-piperazinyl)methyl-2,3-dihydroimidazo[1,2-c]-quinazoline-5(6H)-one (Example 4) on blood pressure in 5 cats; • Fig. 2 is a time-course of various doeses of Example 4 compound on blood pressure in cats; and • Fig. 3 is a plot showing antagonistic effect of Example 4 compound (0.25mg/kg) on blood pressures induced by phenylephrine (0.015mg/kg) or serotonin (0.020mg/kg).
# as §3
# [3] = cats, i.v., 10 µg to 1 mg/kg, dose-dependent
Molecule,Ki (α₁-Adrenergic receptor) [nM],Ki (α₂-adrenergic receptor) [nM],α₂/α₁ ratio (α₂-adrenergic receptor),MBP (mm Hg) 1 hour ([1]; dose 4.0 mg/Kg) [mm Hg],further results
"O=C1Nc2ccccc2C2=NC(CN3CCN(Cc4ccc5c(c4)OCO5)CC3)CN12 (centres unmarked) [Example 6, 2-[4-piperonyl-1-piperazinyl]methyl-2,3-dihydroimidazo[1,2-c]quinazolin-5(6H)-one]",> 100,–,–,–,–
"O=C1Nc2ccccc2C2=NC(CNC3CCN(Cc4ccccc4)CC3)CN12 (centres unmarked) [Example 12, 2-[1-benzylpiperidin-4-yl]aminomethyl-2,3-dihydroimidazo[1,2-c]quinazolin-5(6H)-one]",586 ± 9,–,–,–,–
"2-(4-phenyl-1-piperazinyl)methyl-2,3-dihydroimidazo[1,2-c]quinazolin-5(6H)-thione [Example 20]",–,–,–,-33.9±9.7,MBP (mm Hg) 2 hour ([1]; dose 4.0 mg/Kg): -22.5±7.6 mm Hg
"COc1cc2c(cc1OC)C1=NC(CN3CCN(c4ccccc4)CC3)CN1C(=O)N2 (centres unmarked) [Example 25, 2-(4-phenyl-1-piperazinyl)methyl-8,9-dimethoxy-2,3-dihydro-imidazo[1,2-c]quinazolin-5(6H)-one]",30 ± 10,1690,54,-38.2±5.7,MBP (mm Hg) 2 hour ([1]; dose 4.0 mg/Kg): -12.6±5.0 mm Hg
"COc1cccc(N2CCN(CC3CN4C(=O)Nc5ccccc5C4=N3)CC2)c1 (centres unmarked) [Example 17, 2-[1-(3-methoxyphenyl)piperazinyl]methyl-2,3-dihydroimidazo[1,2-c]quinazolin-5(6H)-one]",–,–,–,-20.3±10.2,MBP (mm Hg) 2 hour ([1]; dose 4.0 mg/Kg): -8.5±2.6 mm Hg
"O=C1Nc2ccccc2C2=NC(CN3CCC(Cc4ccccc4)CC3)CN12 (centres unmarked) [Example 9, 2-[4-Benzyl-1-piperidinyl]methyl-2,3-dihydroimidazo[1,2-c]quinazolin-5(6H)-one]",35.8 ± 8.6,5011 ± 11,140,-30.6±4.7,–
"O=C(c1ccc(F)cc1)C1CCN(CC2CN3C(=O)Nc4ccccc4C3=N2)CC1 (centres unmarked) [Example 15, 2-[1-(4-p-fluorobenzoyl)piperidinyl]methyl-2,3-dihydroimidazo[1,2-c]quinazolin-5(6H)-one]",–,–,–,-30 ±7.3,MBP (mm Hg) 2 hour ([1]; dose 4.0 mg/Kg): -13.8±8.9 mm Hg
"O=C1Nc2ccccc2C2=NC(CN3CCN(c4ccccn4)CC3)CN12 (centres unmarked) [Example 10, 2-[4-(2-Pyridinyl)-1-piperazinyl]methyl-2,3-dihydroimidazo[1,2-c]quinazolin-5(6H)-one]",95.9 ± 5.2,–,–,–,–
"O=C1Nc2ccccc2C2=NC(CN3CCN(Cc4ccccc4)CC3)CN12 (centres unmarked) [Example 8, 2-[4-Benzyl-1-piperazinyl]methyl-2,3-dihydroimidazo[1,2-c]quinazolin-5(6H)-one]",850,> 10000,>11,-43.7±5.2,–
"COc1ccc(N2CCN(CC3CN4C(=O)Nc5ccccc5C4=N3)CC2)cc1 (centres unmarked) [Example 16, 2-[1-(4-methoxyphenyl)piperazinyl]methyl-2,3-dihydroimidazo[1,2-c]quinazolin-5(6H)-one]",> 100,–,–,–,–

# The next lines start with results.
Ki (α₁-Adrenergic receptor) [nM],Ki (α₂-adrenergic receptor) [nM],α₂/α₁ ratio (α₂-adrenergic receptor),Molecule,MBP (mm Hg) 1 hour ([1]; dose 4.0 mg/Kg) [mm Hg],further results
1.3 ± 0.5,3450 ± 329,2654,"COc1ccccc1N1CCN(CC2CN3C(=O)Nc4ccccc4C3=N2)CC1 (centres unmarked) [Example 7, 2-[4-(2-methoxy)phenyl-1-piperazinyl]methyl-2,3-dihydroimidazo[1,2-c]quinazolin-5(6H)-one]",–,MBP (mm Hg) 1 hour ([1]; dose 0.25 mg/Kg): -17.5 mm Hg; MBP (mm Hg) 1 hour ([1]; dose 0.5 mg/Kg): -20 mm Hg; MBP (mm Hg) 2 hour ([1]; dose 0.5 mg/Kg): -18.8 mm Hg; MBP (mm Hg) 1 hour ([1]; dose 1.0 mg/Kg): -30 mm Hg; MBP (mm Hg) 2 hour ([1]; dose 1.0 mg/Kg): -15 mm Hg
0.68 ± 0.26,–,–,"CN1C(=O)N2CC(CN3CCN(c4ccccc4Cl)CC3)N=C2c2ccccc21 (centres unmarked) [Example 28, 2-[4-(2-chlorophenyl)-1-piperazinyl]methyl-6-methyl-2,3-dihydroimidazo[1,2-c]quinazolin-5-one]",–,–
2.01 ± 0.09,–,–,"O=C1Nc2ccccc2C2=NC(CN3CCN(c4ccccc4)CC3)CN12 (centres unmarked) [Example 4, 2-(4-phenyl-1-piperazinyl)methyl-2,3-dihydroimidazo[1,2-c]quinazolin-5(6H)-one]",–,"blood pressure response to PE ([2]; phenylephrine 0.015mg/kg, p<0.02): significantly antagonizes; blood pressure response to 5-HT ([2]; serotonin 0.020mg/kg, p>0.05): no effect; ED50 ([1]; Felis catus, iv, cats, i.v., read-out: ED₅₀ of lowing blood pressure): 0.25 mg/kg; time at which decrease of B.P. reaches maximally ([1]; anesthetized cat, 250 µg/Kg i.v.): 5 to 10 min; MBP (mm Hg) 1 hour ([1]; dose 0.125 mg/Kg): -12.5±4.6 mm Hg; MBP (mm Hg) 1 hour ([1]; dose 0.25 mg/Kg): -23.1±2.7 mm Hg; MBP (mm Hg) 2 hour ([1]; dose 0.25 mg/Kg): -8.75±5.7 mm Hg; MBP (mm Hg) 1 hour ([1]; dose 0.5 mg/Kg): -49.3±1.5 mm Hg; MBP (mm Hg) 2 hour ([1]; dose 0.5 mg/Kg): -32.5±2.5 mm Hg; MBP (mm Hg) 1 hour ([1]; dose 1.0 mg/Kg): -57.5±2.5 mm Hg; MBP (mm Hg) 2 hour ([1]; dose 1.0 mg/Kg): -44.5±0.5 mm Hg; changes in heart rate (HR) [1, 3]: biphasically (initially increases, then decreases); effect on SBP and DBP [1, 3]: decreases both SBP and DBP"
1.1 ± 0.05,3170 ± 396,3015,"O=C1Nc2ccccc2C2=NC(CN3CCN(c4ccccc4Cl)CC3)CN12 (centres unmarked) [Example 26, 2-[4-(2-chlorophenyl)-1-piperazinyl]methyl-2,3-dihydroimidazo[1,2-c]quinazolin-5(6H)-one]",–,MBP (mm Hg) 1 hour ([1]; dose 0.5 mg/Kg): -25.5±3.4 mm Hg; MBP (mm Hg) 2 hour ([1]; dose 0.5 mg/Kg): -5.7±1.5 mm Hg; MBP (mm Hg) 1 hour ([1]; dose 1.0 mg/Kg): -40.7±9.7 mm Hg; MBP (mm Hg) 2 hour ([1]; dose 1.0 mg/Kg): -12.6±3.4 mm Hg
14.4,391,27,"2-[4-(4-fluorobenzyl)-1-piperazinyl]methyl-2,3-dihydroimidazo[1,2-c]quinazolin-5(6H)-one [Example 11]",–,–
